Activity calls are given as the source filed them. How the calls were made is not given here.

Consider 90 molecules from PubChem BioAssay AID463180 (University of Pittsburgh Molecular Library Screening Center, 2010).

Sequence of Furin (Homo sapiens) (P09958 108-714 limits assumed): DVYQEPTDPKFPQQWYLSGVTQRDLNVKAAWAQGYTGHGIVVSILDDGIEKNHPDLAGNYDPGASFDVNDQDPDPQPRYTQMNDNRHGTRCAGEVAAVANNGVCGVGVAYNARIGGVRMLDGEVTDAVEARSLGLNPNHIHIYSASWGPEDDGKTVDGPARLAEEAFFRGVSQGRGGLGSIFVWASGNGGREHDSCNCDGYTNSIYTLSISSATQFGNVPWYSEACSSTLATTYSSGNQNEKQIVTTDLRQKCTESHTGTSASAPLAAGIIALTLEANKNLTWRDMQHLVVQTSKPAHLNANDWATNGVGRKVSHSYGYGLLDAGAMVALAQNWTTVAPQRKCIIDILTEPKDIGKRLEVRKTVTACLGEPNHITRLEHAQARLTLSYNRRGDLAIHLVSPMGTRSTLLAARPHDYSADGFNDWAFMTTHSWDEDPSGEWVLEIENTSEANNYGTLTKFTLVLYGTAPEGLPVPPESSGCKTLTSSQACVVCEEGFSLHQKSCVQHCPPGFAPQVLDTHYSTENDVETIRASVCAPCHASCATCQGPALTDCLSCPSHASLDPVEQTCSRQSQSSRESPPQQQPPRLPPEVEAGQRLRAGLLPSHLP

The assay addresses Furin (Homo sapiens) (UniProt P09958). Description: human furin protease inhibitors, confirmation, biochemical, fluorescence intensity (AID 463180). The settings on record: Recombinant furin, fluorogenic substrate cleavage, at 50 µM, hits give high values.
As to `CCN1CCS/C1=C\C=C\C1=[N+](CC)CCS1`, the inhibition was 63.4%.

On to `CSc1n[nH]c(NCc2ccc(C)cc2)n1`, for which the inhibition is -16.7% (inactive).

Regarding `O=C(CN1C(=O)c2ccccc2C1=O)Nc1sc2c(c1C(=O)NCc1ccco1)CCCC2`, the inhibition is -11.4% (inactive).

As for `CCCCOc1ccc(-c2ncc(Cl)cn2)cc1`, the inhibition was -14.4% (inactive).

`CCCC(=O)Nc1cccc(Oc2nc(C)cc(C)c2C#N)c1`: the inhibition was -3.32% (inactive).

As for `Cc1cccc(/N=C/C2=C(O)CC(C)(C)CC2=O)n1`, the inhibition is 13.1%.

On to `CCCCN1CCC(O)(c2ccccc2)C(C(=O)c2ccccc2)C1` (stereo not given), for which the inhibition was -20.5% (inactive).

As to `CCC(C)C(NC(=O)C1CCC(C)CC1)C(=O)NCc1cccnc1` (stereo not given), the inhibition is -18.4% (inactive).

Turning to `COc1cc(NC(=O)c2ccccc2)c(OC)cc1Cl`, the inhibition was -9.8% (inactive).

Consider `OC(CNCC1CCCO1)Cn1c2ccc(Br)cc2c2cc(Br)ccc21` (stereo not given), for which the inhibition was -2.62% (inactive).

With `O=C(COc1ccc(Cl)cc1Cl)NC(=O)N1CCOCC1`, the inhibition is -20.4% (inactive).

Regarding `CCCCCc1nnc(NC(=O)C2CCCO2)s1` (stereo not given), the inhibition was -22.1% (inactive).

As for `COc1ccccc1NC(=O)c1cc(S(=O)(=O)N2CCOCC2)ccc1Cl`, the inhibition is -16.1% (inactive).

Consider `Cc1cc(N=CC2=C(O)CC(C)(C)CC2=O)no1`, for which the inhibition is -1.24% (inactive).

Take `CN1CCN(c2ccccc2NC(=O)c2cccc(OCc3ccccc3)c2)CC1`: the inhibition is -16% (inactive).

Turning to `Cc1ccccc1-n1c(O)c(C=Nc2ccc(N(C)C)cc2)c(=O)[nH]c1=O`, the inhibition is 20.3%.

As for `NC(=O)c1ccccc1N/C=C/C(=O)c1ccc(F)cc1`, the inhibition is -9.67% (inactive).

In the case of `CCNC(=O)C1CC(=O)N(Cc2ccc3c(c2)OCO3)C(=Nc2ccc(F)cc2)S1` (stereo not given), the inhibition is -9.04% (inactive).

With `Cc1cc(Cl)ccc1OCCCC(=O)N1CCOCC1`, the inhibition is -18.9% (inactive).

Turning to `O=C(C1Cc2ccccc2CN1S(=O)(=O)c1cccs1)N1CCCCC1` (stereo not given), the inhibition was -7.18% (inactive).

As to `COc1ccc(C(=O)NCCN2CCOCC2)cc1OC`, the inhibition was -19.6% (inactive).

As to `CCn1c(C)c(CCC(=O)O)c(=O)n2nc(-c3ccccc3OC)cc12`, the inhibition was -22.2% (inactive).

In the case of `COc1ccc(S(=O)(=O)Nc2cc(C(C)C)c(O)cc2C)cc1`, the inhibition was -20.4% (inactive).

On to `COC(=O)C1C(=O)/C(=C/N(C)C)C(=O)CC1(C)C` (stereo not given), for which the inhibition is 4.91% (inactive).

Take `Cc1ccc(-n2nc3cc(C)c(NC(=O)c4cccnc4)cc3n2)cc1`: the inhibition is -15.7% (inactive).

In the case of `O=C1CC(=C2c3ccccc3-c3ccccc32)C(=O)N1CCCCN1CCN(c2ccccc2)CC1`, the inhibition was 9.51% (inactive).

Consider `OC1C2CN3CCN(C2)CC1(Cc1ccccc1)C3` (stereo not given), for which the inhibition was -20.6% (inactive).

For `CC1(C)CC(=O)C(C=Nc2cccnc2)=C(O)C1`, the inhibition is 21.6%.

For the molecule `CCCOP(=O)(c1ccc(N(C)C)cc1)C(Nc1ccccc1)c1ccc(N(C)C)cc1` (stereo not given), the inhibition is 31.5%.

For `CC(=O)NC(C)c1nc2ccccc2n1Cc1ccccc1F` (stereo not given), the inhibition is -16.7% (inactive).

With `CCOC(=O)c1c(/N=C/C2=C(O)CCCC2=O)sc(C)c1C`, the inhibition is -13.1% (inactive).

In the case of `COc1cccc(-n2nnc3c(=O)n(Cc4ccccc4Cl)cnc32)c1`, the inhibition is -14.9% (inactive).

In the case of `CCOC(=O)C(CC)Sc1nc2c(c(=O)[nH]c(=O)n2C)n1C/C=C(/C)Cl` (stereo not given), the inhibition is -19.2% (inactive).

For `CNC(=O)C1CC(=O)N(CCc2ccc(OC)cc2)C(=Nc2ccc(OC)cc2)S1` (stereo not given), the inhibition is -13.8% (inactive).

With `O=C(COC(=O)c1ccc[nH]c1=O)NCC1CCCO1` (stereo not given), the inhibition is -31.2% (inactive).

As for `CCC(Sc1ncccc1C(=O)O)C(=O)N1CCCC1` (stereo not given), the inhibition is -20.2% (inactive).

On to `C=CCn1c(O)c(/C=N/NC(=O)c2ccncc2)c(=O)[nH]c1=O`, for which the inhibition is 5.98% (inactive).

Consider `CCCCCCN1C=CC=C/C1=C/C=C(C#N)C#N`, for which the inhibition is 6.58% (inactive).

With `CCOC(=O)c1cc(C)sc1/N=C/C1=C(O)CCCC1=O`, the inhibition was -5.31% (inactive).

Turning to `O=C(c1ccco1)N1CCN(C2CC(=O)N(c3ccc4c(c3)OCO4)C2=O)CC1` (stereo not given), the inhibition was -17% (inactive).

`CCCOc1ccc(C2NC(=O)NC2=O)cc1` (stereo not given): the inhibition is -10.8% (inactive).

Take `O=C1CC(c2ccccc2)CC(=O)C1=CN1CCCC1` (stereo not given): the inhibition was 1.13% (inactive).

As for `COC(=O)c1ccc(NC2(C#N)C(=O)Nc3ccccc32)cc1` (stereo not given), the inhibition was -18.6% (inactive).

Regarding `O=C1C=C(c2ccc(Cl)cc2)OC2(CCCC2)O1`, the inhibition was -10.7% (inactive).

In the case of `CCCCCC(=O)N(CN1C(=O)CCC1=O)c1ccccc1`, the inhibition is -20.9% (inactive).

For the molecule `CCOC(=O)C(CC)Sc1nnc(COc2ccc(C)cc2)n1-c1ccccc1` (stereo not given), the inhibition was -0.94% (inactive).

In the case of `COc1ccc(N=CC2=C(O)CC(C)(C)CC2=O)cc1`, the inhibition was 8.92% (inactive).

For `Cc1nc(SCc2ccc(O)c([N+](=O)[O-])c2)n[nH]1`, the inhibition is 0.762% (inactive).

`O=C(CN1C(=O)C2C3C=CC(C3)C2C1=O)NCc1ccc2c(c1)OCO2` (stereo not given): the inhibition was -17.4% (inactive).

On to `CCOC(=O)c1cc(C)sc1/N=C/C1C(=O)CCCC1=O`, for which the inhibition is -15.3% (inactive).

On to `Cn1ncc(Cl)c1C(=O)Nc1cccc(Cl)c1`, for which the inhibition is -11% (inactive).

As to `COc1ccc(NC(=O)Nc2ncn(Cc3cccc(C(F)(F)F)c3)n2)cc1OC`, the inhibition is -15.8% (inactive).

On to `CCn1c(SCC(=O)Nc2cc(F)ccc2C)nnc1-c1ccccc1O`, for which the inhibition is -18.5% (inactive).

`Cc1cc(N=CC2=C(O)CCCC2=O)no1`: the inhibition was -4.93% (inactive).

On to `CC1(C)CC(=O)C(/C=N/n2cnc3ccccc3c2=O)=C(O)C1`, for which the inhibition was 7.64% (inactive).

`CC1(C)CC(=O)C(C=Nc2ccc(Cl)cn2)=C(O)C1`: the inhibition is -4.84% (inactive).

Regarding `COc1cc(S(=O)(=O)Nc2ncccc2C)c(OC)cc1Cl`, the inhibition was -4.1% (inactive).

With `O=C1CC(N2CCC(c3nc4ccccc4o3)CC2)C(=O)N1Cc1cccs1` (stereo not given), the inhibition was -13.2% (inactive).

Turning to `Cc1ccc(SCCCCN2C(=O)NC(C)(C)C2=O)cc1`, the inhibition is -8.35% (inactive).

As to `COc1cc(/C=C/C(=O)OCC(=O)NC(=O)NC(C)C)ccc1O`, the inhibition is 3.94% (inactive).

As for `CCOC(=O)NC(=O)CSc1nnnn1-c1ccccc1`, the inhibition is -19.1% (inactive).

As to `O=C(Nc1ccccc1)N(CCN1CCOCC1)Cc1ccccc1F`, the inhibition is -13% (inactive).

For the molecule `Cc1ccc2nc(/C(C#N)=C/c3cn[nH]c3-c3ccc(F)cc3)[nH]c2c1`, the inhibition was 8.39% (inactive).

For `CN1/C(=C\C=C2C(=O)NC(=O)NC2=O)C(C)(C)c2ccccc21`, the inhibition was 1.52% (inactive).

As for `Cc1cccc(/C=C2/S/C(=N/N=C3\CC4CCC3(C)C4(C)C)NC2=O)c1` (stereo not given), the inhibition was 12.3%.

In the case of `COc1ccc(S(=O)(=O)NCCC(=O)NCc2ccc(F)cc2)cc1`, the inhibition is -20.3% (inactive).

In the case of `CNc1nc(NCCOC23CC4CC(CC(C4)C2)C3)nc(OCC(F)(F)F)n1`, the inhibition was -19.7% (inactive).

As for `CC1(C)CC(=O)C(/C=N/c2ccccn2)=C(O)C1`, the inhibition is 2.22% (inactive).

`COc1nc(C)ccc1-c1noc(-c2ccccn2)n1`: the inhibition was -16.6% (inactive).

For the molecule `O=C(CCN1C(=O)c2ccccc2C1=O)N(CCO)Cc1ccccc1`, the inhibition was -16.7% (inactive).

In the case of `Cc1c(NC(=O)c2ccc(Cl)c(S(=O)(=O)N3CCOCC3)c2)c(=O)n(-c2ccccc2)n1C`, the inhibition was -23.3% (inactive).

Take `N#CC1=C(N)NC(SCc2ccc(Br)cc2)=C(C#N)C12CCCCC2`: the inhibition was -6.5% (inactive).

Consider `COC(=O)c1ccc(Cn2nc(C)c(Cl)c2C)o1`, for which the inhibition was -14.9% (inactive).

Turning to `CCOC(=O)c1cc(CC)sc1/N=C/C1=C(O)CCCC1=O`, the inhibition was -4.4% (inactive).

With `COC(=O)c1[nH]c2ccccc2c1NC(=O)CN1CCC(C(N)=O)(N2CCCCC2)CC1`, the inhibition is -12.8% (inactive).

Consider `CC(=O)Nc1cc(-c2ccc(Cl)cc2)nn1-c1ccccc1`, for which the inhibition is -20% (inactive).

Regarding `COc1ccc(/C=N/n2c(=O)[nH]c3c([nH]c4ccc(C)cc43)c2=O)cc1CN1CCOCC1`, the inhibition was -14% (inactive).

Take `CCSc1ccccc1C(=O)Nc1nncs1`: the inhibition is -22.6% (inactive).

Turning to `O=C(Cc1c[nH]c2ccccc12)N1CCc2ccccc21`, the inhibition was -24.6% (inactive).

For `Cc1cccc(-n2c(O)c(/C=C/C=Nc3ccccc3)c(=O)[nH]c2=O)c1`, the inhibition was 14.2%.

With `COc1ccc(NC(=O)CSc2nncn2C)cc1OC`, the inhibition is -12.4% (inactive).

For the molecule `COc1cc(C(=O)Nc2ccc(-c3nnc(-c4ccco4)o3)cc2)cc(OC)c1OC`, the inhibition is -21% (inactive).

As to `COc1ccccc1C(=O)NC(C)C(c1cccs1)N1CCOCC1` (stereo not given), the inhibition was -25.9% (inactive).

With `CCN1CCS/C1=C/C=C/C1=[N+](CC)CCS1`, the inhibition was 61.3%.

Take `COC(=O)c1[nH]c2cc(OC)ccc2c1NC(=O)CCN1CCCCC1`: the inhibition was -14.9% (inactive).

In the case of `CCOC(=O)C(C(=O)NCC1CCCO1)C1CCCCC1` (stereo not given), the inhibition is -17.6% (inactive).

As to `O=C(NCc1ccccc1)C1COc2ccccc2O1` (stereo not given), the inhibition is -16.5% (inactive).

`CSc1nc(N)c(N=Nc2ccc([As](=O)(O)O)cc2)c(=O)[nH]1`: the inhibition is 15.9%.

With `CC1(C)CC(=O)C(C=Nc2cccnc2/N=C/C2=C(O)CC(C)(C)CC2=O)=C(O)C1`, the inhibition is 0.675% (inactive).

As to `COC(=O)COc1ccc(S(=O)(=O)NCC2CCCO2)cc1Cl` (stereo not given), the inhibition is -21.4% (inactive).

For orientation: inhibition means the relative decrease from the control value, in per cent.
